In paper PMC6352943, “Novel pyrazolo[3,4-d]pyrimidines: design, synthesis, anticancer activity, dual EGFR/ErbB2 receptor tyrosine kinases inhibitory activity, effects on cell cycle profile and caspase-3-mediated apoptosis” (Journal of Enzyme Inhibition and Medicinal Chemistry, 2019):

Tests used:
Experiment in all cases: NCI 60 cell line single dose screen (SRB)
Format in all cases: cell-based
K-562 = conditions: Homo sapiens, K562; K-562 (leukemia), single dose 10^−5 M, 48 h; read-out: Growth inhibition percentage
Experimental: (§1) Anticancer activity screening of the newly synthesised compounds was measured in vitro utilising 60 different human tumour cell lines provided by US National Cancer Institute according to previously reported standard procedure[27–29] as follows: Cells are inoculated into 96-well microtitre plates in 100 ml. After cell inoculation, the microtitre plates are incubated at 37 °C, 5% CO2, 95% air and 100% relative humidity for 24 h prior to addition of experimental compounds. After 24 h, two plates of each cell line are fixed in situ with TCA, to represent a measurement of the cell population for each cell line at the time of drug addition (Tz). Experimental compounds are solubilised in dimethyl sulphoxide at 400-fold the desired final maximum test concentration and stored frozen prior to use. At the time of compound addition, an aliquot of frozen concentrate is thawed and diluted to twice the desired final maximum test concentration with complete medium containing […] gentamicin. Aliquots of […] of the compounds dilutions are added to the appropriate microtitre wells already containing 100 ml of medium, resulting in the required final compound concentration. Following compound addition, the plates are incubated for an additional 48 h at 37 °C, 5% CO2, 95% air, and 100% relative humidity. For adherent cells, the assay is terminated by the addition of cold trichloroacetic acid (TCA). Cells are fixed in situ by the gentle addition of 50 ml of cold 50% (w/v) TCA (final concentration, 10% TCA) and incubated for 60 min at 4 °C. The supernatant is discarded, and the plates are washed five times with tap water and air-dried. Sulphorhodamine B (SRB) solution (100 ml) at 0.4% (w/v) in 1% acetic acid is added to each well, and plates are incubated for 10 min at room temperature. After staining, unbound dye is removed by washing five times with 1% acetic acid and the plates are air-dried. Bound stain is subsequently solubilised with 10 mM trizma base, and the absorbance is read on an automated plate reader at a wavelength of 515 nm. For suspension cells, the methodology is the same except that the assay is terminated by fixing settled cells at the bottom of the wells by gently adding 50 ml of 80% TCA (final concentration, 16% TCA). Using the absorbance measurements [time zero, (Tz), control growth, (C), and test growth in the presence of compound (Ti)], the percentage growth is calculated for each compound. Percentage growth inhibition is calculated as: [(Ti – Tz)/(C – Tz)] x 100 for concentrations for which Ti >/=Tz. [(Ti – Tz)/Tz] x 100 for concentrations for which Ti < Tz.

HOP-92 = conditions: Homo sapiens; HOP-92 (non-small cell lung cancer), single dose 10^−5 M, 48 h; read-out: Growth inhibition percentage
Experimental: as §1

COLO 205 = conditions: Homo sapiens, COLO 205, 48 h; read-out: Growth inhibition percentage
Experimental: as §1

SK-MEL-28 = conditions: Homo sapiens; SK-MEL-28 (melanoma), single dose 10^−5 M, 48 h; read-out: Growth inhibition percentage
Experimental: as §1

BT-549 = conditions: Homo sapiens; BT-549 (breast cancer), single dose 10^−5 M, 48 h; read-out: Growth inhibition percentage
Experimental: as §1

LOX IMVI = conditions: Homo sapiens; LOX IMVI (melanoma), single dose 10^−5 M, 48 h; read-out: Growth inhibition percentage
Experimental: as §1

HOP-62 = conditions: Homo sapiens; HOP-62 (non-small cell lung cancer), single dose 10^−5 M, 48 h; read-out: Growth inhibition percentage
Experimental: as §1

NCI-H226 = conditions: Homo sapiens; NCI-H226 (non-small cell lung cancer), single dose 10^−5 M, 48 h; read-out: Growth inhibition percentage
Experimental: as §1

PC-3 = conditions: Homo sapiens; PC-3 (prostate cancer), single dose 10^−5 M, 48 h; read-out: Growth inhibition percentage
Experimental: as §1

A498 = conditions: Homo sapiens; A498 (renal cancer), single dose 10^−5 M, 48 h; read-out: Growth inhibition percentage
Experimental: as §1

DU-145 = conditions: Homo sapiens; DU-145 (prostate cancer), single dose 10^−5 M, 48 h; read-out: Growth inhibition percentage
Experimental: as §1

M14 = conditions: Homo sapiens; M14 (melanoma), single dose 10^−5 M, 48 h; read-out: Growth inhibition percentage
Experimental: as §1

NCI/ADR-RES = conditions: Homo sapiens; NCI/ADR-RES (ovarian cancer), single dose 10^−5 M, 48 h; read-out: Growth inhibition percentage
Experimental: as §1

HCT-116 = conditions: Homo sapiens; HCT-116 (colon cancer), single dose 10^−5 M, 48 h; read-out: Growth inhibition percentage
Experimental: as §1

HCT-15 = conditions: Homo sapiens; HCT-15 (colon cancer), single dose 10^−5 M, 48 h; read-out: Growth inhibition percentage
Experimental: as §1

UACC-257 = conditions: Homo sapiens; UACC-257 (melanoma), single dose 10^−5 M, 48 h; read-out: Growth inhibition percentage
Experimental: as §1

OVCAR-8 = conditions: Homo sapiens; OVCAR-8 (ovarian cancer), single dose 10^−5 M, 48 h; read-out: Growth inhibition percentage
Experimental: as §1

U251 = conditions: Homo sapiens, U-251; U251 (CNS cancer), single dose 10^−5 M, 48 h; read-out: Growth inhibition percentage
Experimental: as §1

A549/ATCC = conditions: Homo sapiens; A549/ATCC (non-small cell lung cancer), single dose 10^−5 M, 48 h; read-out: Growth inhibition percentage
Experimental: as §1

EKVX = conditions: Homo sapiens; EKVX (non-small cell lung cancer), single dose 10^−5 M, 48 h; read-out: Growth inhibition percentage
Experimental: as §1

SK-MEL-2 = conditions: Homo sapiens; SK-MEL-2 (melanoma), single dose 10^−5 M, 48 h; read-out: Growth inhibition percentage
Experimental: as §1

Compound | inhibition at 10 µM (K-562) | inhibition at 10 µM (HOP-92) | inhibition at 10 µM (COLO 205) | inhibition at 10 µM (SK-MEL-28) | inhibition at 10 µM (BT-549) | inhibition at 10 µM (LOX IMVI) | inhibition at 10 µM (HOP-62) | inhibition at 10 µM (NCI-H226) | inhibition at 10 µM (PC-3) | inhibition at 10 µM (A498) | inhibition at 10 µM (DU-145) | inhibition at 10 µM (M14) | inhibition at 10 µM (NCI/ADR-RES) | inhibition at 10 µM (HCT-116) | inhibition at 10 µM (HCT-15) | inhibition at 10 µM (UACC-257) | inhibition at 10 µM (OVCAR-8) | inhibition at 10 µM (U251) | inhibition at 10 µM (A549/ATCC) | inhibition at 10 µM (EKVX) | other results
Cc1nn(-c2ccc(F)cc2)c2nc[nH]c(=O)c12 [Compound 3, 1–(4-Fluorophenyl)-3-methyl-1H-pyrazolo[3,4-d]pyrimidin-4(5H)-one] | 1.69% | 10.3% | -14.9% | -14.1% | -3.59% | 2.19% | -6.53% | -9.27% | 1.46% | 0.02% | -6.51% | -7.65% | -1.22% | -1.64% | -6.88% | -8.15% | -0.16% | -1.7% | -2.93% | 36.2% | inhibition at 10 µM (SK-MEL-2): -5.1%
Cc1nn(-c2ccc(F)cc2)c2ncnc(N)c12 [Compound 4, 1–(4-Fluorophenyl)-3-methyl-1H-pyrazolo[3,4-d]pyrimidin-4-amine] | 1.98% | -1.54% | -18.4% | -3.55% | 9.79% | 1.75% | -8.24% | -7.4% | 1.03% | 0.68% | -7.26% | -3.62% | 0.66% | -8.66% | -4.62% | -14.2% | -4.64% | -7.56% | -4.88% | 19.1% | inhibition at 10 µM (SK-MEL-2): 1.74%
Cc1nn(-c2ccc(F)cc2)c2nc(N)nc(N)c12 [Compound 5, 1–(4-Fluorophenyl)-3-methyl-1H-pyrazolo[3,4-d]pyrimidine-4,6-diamine] | -11.9% | 1.64% | -13.5% | -4.89% | -17.4% | 2.19% | -8.35% | -8.08% | 3.59% | -3.11% | -9.51% | -2.93% | -3.45% | -2.75% | -3.69% | -18.7% | -7.15% | -6.63% | -1.96% | 6.25% | inhibition at 10 µM (SK-MEL-2): 3.86%
Cc1nn(-c2ccc(F)cc2)c2ncnc(Cl)c12 [Compound 6, 4-Chloro-1–(4-fluorophenyl)-3-methyl-1H-pyrazolo[3,4-d]pyrimidine] | 15.4% | 7.91% | -14.9% | -4.92% | -11.5% | 6.64% | 15.4% | 15.1% | 14.8% | 4.71% | 3.05% | 5.89% | -8.11% | 7.98% | 1.32% | 17.4% | 6.34% | 5.15% | 11.6% | 9.08% | inhibition at 10 µM (SK-MEL-2): 11%
Cc1ccc(Nc2ncnc3c2c(C)nn3-c2ccc(F)cc2)cc1 [Compound 7c, 1–(4-Fluorophenyl)-3-methyl-N-(p-tolyl)-1H-pyrazolo[3,4-d]-pyrimidin-4-amine] | 0.26% | 3.79% | -13.3% | -11.1% | -8.83% | -0.99% | -14.5% | -10.2% | 7.23% | 5.97% | -8.97% | 0.75% | -6.46% | 3.2% | -0.49% | -7.62% | 2.02% | 2.65% | 3.08% | 3.39% | inhibition at 10 µM (SK-MEL-2): 10.9%
Cc1nn(-c2ccc(F)cc2)c2ncnc(Nc3ccc(F)c(Cl)c3)c12 [Compound 7d, N-(3-Chloro-4-fluorophenyl)-1–(4-fluorophenyl)-3-methyl-1H-pyrazolo[3,4-d] pyrimidin-4-amine] | 1.78% | 22.8% | -3.96% | -4.63% | -4.84% | 8.68% | 38.7% | 62.9% | 17.2% | -5.43% | -3.13% | 1.01% | 5.13% | 19.2% | 2.75% | -1.41% | 16.6% | 24% | 40.5% | 14.5% | inhibition at 10 µM (SK-MEL-2): 2.61%
Cc1nn(-c2ccc(F)cc2)c2ncnc(N3CCOCC3)c12 [Compound 8a, 1–(4-Fluorophenyl)-3-methyl-4-morpholino-1H-pyrazolo[3,4-d]pyrimidine] | -3.68% | 9.27% | -7.19% | -12.6% | 3.96% | -2.33% | -13.6% | -8.48% | 5.06% | 4.93% | -7.7% | -4.47% | -6.35% | -7.69% | -2.04% | -5.9% | -5.87% | -1.7% | -0.09% | 19.5% | inhibition at 10 µM (SK-MEL-2): 1.49%
